# From patent US20150018268A1, “MULTIVALENT SYNTHETIC COMPOUNDS AS ANTIBIOTIC TREATMENT” (CENTRE NATIONAL DE LA RECHERCHE SCIENTIFIQUE (CNRS), priority 2010, published 2015)
# Square brackets hold non-standard residues; d marks the D form. Side chains are listed from the residue outwards. Peptide text beside a SMILES is read from it. * marks the point of attachment. X1 = NCCCCC(N)CN1CCC[C@H]1C(=O)*; Ahx = NCCCCCC(=O)O
# How the values were obtained:
# Half-life in human serum = type: in vitro ADME; conditions: human serum at 37° C.
# From the text: (§1) The term “standard peptide bond” means an amide bond of formula (—CONH—) which is normally present between 2 amino acids in a natural protein. Such a bond is sensitive to the action of proteases. The term “modified peptide bonds ψ” means a chemical bond between 2 amino acids of chemical formula distinct from the standard peptide bond of formula (—CONH—). […] The term “protease”, also known as “peptidase” or “proteolytic enzyme”, means any enzyme which cleaves the standard peptide bonds in proteins. This process is known as proteolytic cleavage. This involves the use of a water molecule which is what leads to proteases being classified as hydrolases. The proteases namely include proteases known as N-peptidases which carry out the cleavage of the N-terminal end of proteins. These proteases are particularly inconvenient in terms of the in vivo stability of peptides without modified peptide bonds.
# [1] = Half-life in foetal calf serum; type: in vitro ADME; conditions: bovine; foetal calf serum at 37° C.
# From the text: as §1
smiles,measurement,setting,value
"N=C(N)NCCC[C@H](NC(=O)[C@@H]1CCCN1CC(N)CCCCN)C(=O)NCCCC[C@H](NC(=O)[C@H](CCCCN)NC(=O)[C@H](CCCCNC(=O)[C@H](CCCNC(=N)N)NC(=O)[C@@H]1CCCN1CC(N)CCCCN)NC(=O)[C@H](CCCNC(=N)N)NC(=O)[C@@H]1CCCN1CC(N)CCCCN)C(=O)NCC(=O)N1CCC[C@H]1C(=O)N[C@@H](CCCCNC(=O)[C@H](CCCNC(=N)N)NC(=O)[C@@H]1CCCN1CC(N)CCCCN)C(=O)N[C@@H](CCC(=O)O)C(=O)N[C@@H](CCCCNC(=O)[C@H](CCCNC(=N)N)NC(=O)[C@@H]1CCCN1CC(N)CCCCN)C(=O)NCCCCCC(N)=O (some centres unmarked) [HB19, 5[Kψ(CH2N)PR]-TASP] (X1-RK([Arg-X1])KK([Arg-X1])GPK([Arg-X1])EK([Arg-X1])[Ahx]-NH2)",half-life,Half-life in human serum,> 24 h
same,half-life,[1],> 24 h
